Patent US10952992B2, “Methods of treating intraocular pressure with activators of Tie-2” (Aerpio Pharmaceuticals, Inc., priority 2015, dated 2021)
“And” between values parts separate entries of the source, which are not always exact repeats. Equal values may be shown once. Where a name gives a salt, the structure may show the parent alone.

Columns and labels:
[1] = Example 2 plasma concentrations and pharmacokinetics after topical ocular, subcutaneous, intravitreal administration; format: in vivo, male New Zealand White rabbits
Description: (§1) To measure the concentration of Compound 1 in plasma and ocular tissues following topical ocular, subcutaneous, and intravitreal administration, New Zealand White rabbits were administered Compound 1, and plasma and ocular samples were collected at pre-determined time points. Compound 1 formulations were prepared fresh on each day of dosing.
(§2) Ocular tissue samples from both eyes of each animal were collected and weights were recorded. Plasma and ocular tissue sample concentrations of Compound 1 were determined by LC-MS/MS.
New Zealand White rabbits weighing 2.5 to 3.5 kg were used on this study. Rabbits were housed one per cage. Animals were not fasted and only healthy animals with no ocular illness were used. Two rabbits per group were sacrificed at each of four ocular tissue sampling time points for a total of eight rabbits per group.
(§3) Animals were anesthetized for ocular (topical) and intravitreal dosing following the 12IA7 IACUC protocol. Each rabbit received a bolus dose of test formulation either via topical ocular administration 3 times daily on Days 1 and 2 (at 0, 6, and 12 hours), and once on Day 3 (at 0 hours) into both eyes; via intravitreal administration into both eyes once on Day 1 (at 0 hours); or via subcutaneous administration 2 times daily on Days 1 and 2 (at 0 and 8 hours) and once daily on Day 3 (at 0 hours). Doses were given within an approximately 1 hour window each day where applicable.
Each blood sample was collected on Day 3 post dose at pre-determined time points from the rabbits via an ear vessel and placed into chilled polypropylene tubes containing sodium heparin as an anticoagulant. Samples were spun by centrifuge at 4° C. and 3,000× g for 5 minutes. Samples were maintained chilled throughout processing. Each plasma sample was placed on dry ice and stored in a freezer at −60° C. to −80° C. pending bioanalysis.
(§4) An LC-MS/MS method was developed for the determination of Compound 1 in rabbit aqueous tissues (plasma, aqueous and vitreous humor) and solid ocular tissue samples. A pre-study standard curve was analyzed to determine the specificity, range, and lower limit of quantitation of the method. Plasma and tissue homogenate study samples were extracted and analyzed. All the samples were treated identically to the standards.
(§5) One eight-point standard curve was used in each analytical batch. To be accepted, each batch must have had at least five of eight standards with accuracy within ±20% of nominal, except at the lower limit of quantification (LLOQ), where ±25% was acceptable.
Pharmacokinetic parameters were calculated from the time course of the plasma concentration. The maximum plasma concentration (Cmax) and time to the maximum plasma drug concentration (Tmax) were the observed values for each concentration-time profiles. The area under the plasma drug concentration-time curve (AUClast, with last being from time 0 to the last quantifiable point) was calculated using the trapezoidal formula. The mean residence time MRTlast was calculated as a ratio of AUMClast (area under the first movement curve) to AUClast.

[2] = Example 2 vitreous humor concentrations; format: in vivo, male New Zealand White rabbits; settings: for Average Peak Concentration, Vitreous Humor: solution
Description: as §1, §2, §3
On Day 1, for intravitreal administration, or on Day 3, for topical ocular and subcutaneous administration, at the appropriate ocular tissue collection time points, animals were euthanized and both eyes were enucleated immediately. Following enucleation, each eye was rinsed with phosphate-buffered saline. Ocular tissue samples from both eyes of each animal were collected at predetermined time points and weights were recorded. All the samples were frozen immediately on dry ice, and stored at −60° C. to −80° C. pending bioanalysis.
as §4, §5

[3] = Group 4: intravitreal solution, normalized by nominal dose 1.55 mg/kg
[4] = Group 1 (topical ocular 1.2 mg/eye), 0.5 hr
[5] = Group 1 (topical ocular 1.2 mg/eye), 1.0 hr
[6] = Group 1 (topical ocular 1.2 mg/eye), 2.0 hr
[7] = Group 1 (topical ocular 1.2 mg/eye), 4.0 hr
[8] = Group 2 (subcutaneous 5 mg/kg/dose, solution), 0.5 hr
[9] = Group 2 (subcutaneous 5 mg/kg/dose, solution), 1.0 hr
[10] = Group 2 (subcutaneous 5 mg/kg/dose, solution), 2.0 hr, BLOQ = below 0.2 ng/mL
[11] = Group 2 (subcutaneous 5 mg/kg/dose, solution), 4.0 hr, BLOQ = below 0.2 ng/mL
[12] = Group 4 (intravitreal 2.5 mg/eye, solution), 6.0 hr
[13] = Group 4 (intravitreal 2.5 mg/eye, solution), 24 hr
[14] = Group 4 (intravitreal 2.5 mg/eye, solution), 48 hr
[15] = Group 4 (intravitreal 2.5 mg/eye, solution), 72 hr

SMILES: COC(=O)N[C@@H](Cc1ccccc1)C(=O)N[C@@H](Cc1ccc(NS(=O)(=O)O)cc1)c1csc(-c2cccs2)n1 [Compound 1 sodium salt]
- plasma Conc., individual rabbit ([1]; Group 4: intravitreal 2.5 mg/eye (~1.55 mg/kg), 10% HPβCD + 2% dextrose solution, 72.0 hr): 0.215 ng/mL and 0.333 ng/mL
- plasma tmax ([1]; Group 4: intravitreal 2.5 mg/eye (~1.55 mg/kg), 10% HPβCD + 2% dextrose solution, listed as Compound 1 (sodium salt)): 3 h
- plasma AUClast, dose normalized [1, 3]: 615 ± 58.8 kg·ng·h/mL/mg and 615 kg·ng·h/mL/mg
- plasma AUC∞, dose normalized [1, 3]: 617 kg·ng·h/mL/mg
- mean plasma AUClast between the two dose formulations ([1]; intravitreal administration): comparable
- mean plasma Cmax, sodium salt solution compared to free acid suspension ([1]; intravitreal administration): approximately 2 fold
- plasma concentrations vs free acid (FIG. 5) ([1]; intravitreal administration, up to twenty-four hours post-administration): slightly higher plasma concentrations as compared to the free acid
- mean plasma AUClast, sodium salt solution compared to free acid suspension ([1]; subcutaneous administration): approximately 2 fold
- mean plasma Cmax, sodium salt solution compared to free acid suspension ([1]; subcutaneous administration): approximately 3 fold
- mean plasma Tmax ([1]; subcutaneous administration, postdose): 0.25 h
- plasma concentrations vs free acid (FIG. 4) ([1]; subcutaneous administration, up to one hour post-administration): generally increased plasma concentrations as compared to the free acid
- plasma concentration (FIG. 3) ([1]; topical ocular administration, 4 hour mark): increase in Compound 1 plasma concentration
- vitreous humor Average Conc. [2, 4]: 0.61 ng/g
- vitreous humor Conc. OD [2, 4]: 0.549 ng/mL
- vitreous humor Conc. OS [2, 4]: 0.528 ng/mL and 0.507 ng/mL
- vitreous humor Average Conc. [2, 5]: 2.09 ng/g
- vitreous humor Conc. OD [2, 5]: 1.97 ng/mL and 3.28 ng/mL
- vitreous humor Average Conc. [2, 6]: 3.33 ng/g
- vitreous humor Conc. OD [2, 6]: 1.14 ng/mL
- vitreous humor Conc. OS [2, 6]: 0.950 ng/mL
- vitreous humor Average Conc. [2, 7]: 4.01 ng/g
- vitreous humor Conc. OD [2, 7]: 1.09 ng/mL and 0.551 ng/mL
- vitreous humor Conc. OS [2, 7]: 2.20 ng/mL
- Average Peak Concentration, Vitreous Humor ([2]; Group 1: topical ocular 0.70 mg/kg/dose): 0.61 ng/g
- vitreous humor Average Conc. [2, 8]: 0.83 ng/g
- vitreous humor Conc. OD [2, 8]: 0.77 ng/mL and 0.537 ng/mL
- vitreous humor Conc. OS [2, 8]: 1.03 ng/mL and 0.981 ng/mL
- vitreous humor Average Conc. [2, 9]: 0.45 ng/g
- vitreous humor Conc. OD [2, 9]: 0.252 ng/mL and 0.442 ng/mL
- vitreous humor Conc. OD [2, 10]: BLOQ
- vitreous humor Conc. OS [2, 10]: BLOQ
- vitreous humor Conc. OD [2, 11]: BLOQ
- vitreous humor Conc. OS [2, 11]: BLOQ
- Average Peak Concentration, Vitreous Humor ([2]; Group 2: subcutaneous 5 mg/kg/dose): 0.83 ng/g
- vitreous humor Average Conc. [2, 12]: 988500 ng/g
- vitreous humor Conc. OD [2, 12]: 1450000 ng/mL and 1480000 ng/mL
- vitreous humor Conc. OS [2, 12]: 592000 ng/mL and 432000 ng/mL
- vitreous humor Average Conc. [2, 13]: 349500 ng/g
- vitreous humor Conc. OD [2, 13]: 438000 ng/mL and 406000 ng/mL
- vitreous humor Conc. OS [2, 13]: 295000 ng/mL and 259000 ng/mL
- vitreous humor Average Conc. [2, 14]: 82000 ng/g
- vitreous humor Conc. OD [2, 14]: 85200 ng/mL and 68600 ng/mL
- vitreous humor Conc. OS [2, 14]: 82300 ng/mL and 91900 ng/mL
- vitreous humor Average Conc. [2, 15]: 13450 ng/g
- vitreous humor Conc. OD [2, 15]: 14500 ng/mL and 11700 ng/mL
- vitreous humor Conc. OS [2, 15]: 13500 ng/mL and 14100 ng/mL
- Average Peak Concentration, Vitreous Humor ([2]; Group 4: intravitreal 1.55 mg/kg/dose): 988500 ng/g
- vitreous humor concentrations vs free acid (FIG. 11) ([2]; intravitreal administration, 6 hr post-dosing): higher vitreous humor concentrations
- vitreous humor concentrations vs free acid (FIG. 10) ([2]; subcutaneous administration, 0.5 hr and 1 hr post-dosing): increased vitreous humor concentrations
- vitreous humor concentrations over time (FIG. 9) ([2]; topical ocular administration): increased vitreous humor concentrations
